Results: patent publication US20080161254A1, “HCV INHIBITORS” (ViroBay, Inc., priority 2007, published 2008)

Tested on: HCV replication (HCV replicon-containing Huh7/Clone A cells)
Assay: HCV replicon assay
Format: cell-based
Settings: Hepatitis C virus, Huh-7, 48 hours incubation, HCV replicon RNA by RT-qPCR normalized to total RNA, read-out: IC50, inhibition of HCV replication
Excerpt: The HCV replicon assay is a cell-culture system that mimics in vivo HCV replication and provides a system to study HCV replication in vitro. It was created by transfecting cloned viral RNA derived from a consensus HCV genomic sequence into human Huh7 hepatoma cells that are semi-permissive for viral RNA production (Lohmann V., Korner F., Koch J.-0., Herian U., Theilmann L. and Bartenschlager R. (1999). Replication of subgenomic Hepatitis C virus RNAs in a hepatoma cell line. Science 285, 110-113 and Blight K. J., Kolykhalov A. A. and Rice C. M. (2000). Efficient initiation of HCV RNA Replication in cell culture. Science 290, […]). These transfected cell lines contain a subgenomic HCV RNA genome that includes (1) the HCV 5′NTR fused to 12 amino acids of the capsid coding region, (2) the neomycin phosphotransferase gene (Neo) as a selectable marker, (3) the internal ribosome entry site (IRES) from encephalomyocarditis virus (EMCV) that directs translation of HCV non-structural proteins (variously NS2 or NS3 to NS5B), and (4) the 3′ NTR. Replicon-containing cells autonomously and persistently replicate HCV RNA that can be measured quantitatively by real-time qPCR. Therefore, the replicon system facilitates quantitative assessment of anti-viral activity by monitoring changes in HCV RNA replication in a cell-based assay.
HCV replicon-containing cells (Huh7/Clone A) were routinely maintained in Clone A growth medium (DMEM medium [Invitrogen], supplemented with 10% Fetal Bovine Serum, 1% Non Essential Amino Acids and 1 g/L G418). […]
Total RNA eluted in 130 μl of RNase-free dH2O was quantitated by the RiboGreen Assay according to the supplier's protocol (Molecular Probe). […] RNA samples in the black microplate were mixed with 95 μl of diluted RiboGreen reagent (1:250 dilution in TE buffer) and sample fluorescence was measured using a fluorescence microplate reader at standard fluorescein wavelengths (excitation ˜480 nm, emission ˜520 nm). […]
TaqMan quantitative PCR(RT-qPCR) was used to quantitate the amount of HCV replicon RNA in each sample. […]

| SMILES | IC50 [nM] |
| --- | --- |
| CCC[C@H](NC(=O)[C@@H]1C[C@@H](Oc2nc(-c3ccccn3)nc3ccsc23)CN1C(=O)[C@@H](NC(=O)NC(C)(C)C)C(C)(C)C)C(=O)C(=O)NC1CC1 [Example 7, (2S,4R)-1-((S)-2-(3-tert-butylureido)-3,3-dimethylbutanoyl)-N—((S)-1-(cyclopropylamino)-1,2-dioxohexan-3-yl)-4-(2-(pyridin-2-yl)thieno[3,2-d]pyrimidin-4-yloxy)pyrrolidine-2-carboxamide] | < 1000 |
| CCC[C@H](NC(=O)[C@@H]1C[C@@H](Oc2cc(-c3ccccn3)nc3ccsc23)CN1C(=O)[C@@H](NC(=O)NC(C)(C)C)C(C)(C)C)C(=O)C(=O)NC1CC1 [Example 5, (2S,4R)-1-((S)-2-(3-tert-butylureido)-3,3-dimethylbutanoyl)-N—((S)-1-(cyclopropylamino)-1,2-dioxohexan-3-yl)-4-(5-(pyridin-2-yl)thieno[3,2-b]pyridin-7-yloxy)pyrrolidine-2-carboxamide] | < 1000 |
| CCC[C@H](NC(=O)[C@@H]1C[C@@H](Oc2nc(-c3ccccn3)nc3sccc23)CN1C(=O)[C@@H](NC(=O)NC(C)(C)C)C(C)(C)C)C(=O)C(=O)NC1CC1 [Example 6, (2S,4R)-1-((S)-2-(3-tert-butylureido)-3,3-dimethylbutanoyl)-N—((S)-1-(cyclopropylamino)-1,2-dioxohexan-3-yl)-4-(2-(pyridin-2-yl)thieno[2,3-d]pyrimidin-4-yloxy)pyrrolidine-2-carboxamide] | < 1000 |
